{"source": "ChEMBL document CHEMBL4706653", "about": "“Ultra-short lipopeptides against gram-positive bacteria while alleviating antimicrobial resistance” (Eur J Med Chem, 2021)", "key": {"Bacillus subtilis": {"system": "Bacillus subtilis", "experiment": "Antimicrobial activity against Bacillus subtilis ATCC 23857 after 18 hrs by broth microdilution method", "type": "functional"}, "Erythrocyte": {"system": "Erythrocyte", "experiment": "Hemolytic activity against mouse erythrocytes measured after 1 hr", "type": "ADME, cell-based"}, "Staphylococcus aureus [1]": {"system": "Staphylococcus aureus", "experiment": "Ratio of MIC for antimicrobial activity against Staphylococcus aureus ATCC 25923 in presence of 2.5% serum to MIC for antimicrobial activity against Staphylococcus aureus ATCC 25923 in absence of serum", "type": "functional"}, "[2]": {"experiment": "Stability in mouse serum assessed as parent compound remaining at volume ratio of 1:19 measured after 6 hrs by RP-HPLC analysis", "type": "ADME, cell-free", "conditions": "read-out: Stabilty"}, "Staphylococcus aureus [3]": {"system": "Staphylococcus aureus", "experiment": "Antimicrobial activity against Staphylococcus aureus ATCC 25923 assessed as reduction in bacterial growth at 0.5 times MIC preincubated for 4 hrs followed by replating on MHB agar and measured after 24 hrs by time kill assay", "type": "functional, organism-based", "conditions": "time 28.0 hrs"}, "Staphylococcus aureus [4]": {"system": "Staphylococcus aureus", "experiment": "Antimicrobial activity against Staphylococcus aureus ATCC 25923 assessed as bacterial killing at 4 times MIC preincubated for 30 mins followed by replating on MHB agar and measured after 24 hrs by time kill assay", "type": "functional, organism-based", "conditions": "time 24.5 hrs"}, "Staphylococcus aureus [5]": {"system": "Staphylococcus aureus", "experiment": "Antimicrobial activity against Staphylococcus aureus ATCC 25923 assessed as bacterial killing at 2 times MIC preincubated for 2 hrs followed by replating on MHB agar and measured after 24 hrs by time kill assay", "type": "functional, organism-based", "conditions": "time 26.0 hrs"}, "Cell membrane [6]": {"system": "Cell membrane", "experiment": "Induction of cytoplasmic membrane disruption in Staphylococcus aureus ATCC 25923 measured for 15 mins by DiSC3-5 dye based fluorescence assay"}, "HEK-293T": {"system": "HEK-293T", "experiment": "Cytotoxicity against HEK293T cells assessed as reduction in cell viability at 64 to 128 uM measured after 24 hrs by MTT assay", "type": "cell-based", "conditions": "human, dose 64-128 µM"}, "[7]": {"experiment": "Stability in mouse serum assessed as drug degradation at volume ratio of 1:19 measured after 6 hrs by RP-HPLC analysis", "type": "ADME, cell-free", "conditions": "read-out: Drug degradation"}, "Staphylococcus aureus [8]": {"system": "Staphylococcus aureus", "experiment": "Antimicrobial activity against Staphylococcus aureus ATCC 25923 assessed as bacterial killing at 2 to 4 times MIC preincubated for 30 mins followed by replating on MHB agar and measured after 24 hrs by time kill assay", "type": "functional, organism-based", "conditions": "time 24.5 hrs"}, "Staphylococcus aureus [9]": {"system": "Staphylococcus aureus", "experiment": "Antimicrobial activity against Staphylococcus aureus ATCC 25923 assessed as bacterial killing at MIC preincubated for 1 hr followed by replating on MHB agar and measured after 24 hrs by time kill assay", "type": "functional, organism-based", "conditions": "time 25.0 hrs"}, "Staphylococcus aureus [10]": {"system": "Staphylococcus aureus", "experiment": "Antimicrobial activity against Staphylococcus aureus ATCC 25923 assessed as bacterial killing at 0.5 times MIC preincubated for 4 hrs followed by replating on MHB agar and measured after 24 hrs by time kill assay", "type": "functional, organism-based", "conditions": "time 28.0 hrs"}, "Cell membrane [11]": {"system": "Cell membrane", "experiment": "Induction of cytoplasmic membrane disruption in Staphylococcus aureus ATCC 25923 at 0.5 to 4 times MIC measured for 15 mins by DiSC3-5 dye based fluorescence assay"}, "[12]": {"experiment": "Cytotoxicity against HEK293T cells assessed as cell viability at 128 uM measured after 24 hrs by MTT assay relative to control", "type": "cell-based, HEK-293T", "conditions": "human, read-out: Activity"}, "[13]": {"experiment": "Toxicity in BALB/c mouse assessed as effect on body weight at 20 to 80 mg/kg, ip administered as single dose measured for 5 days", "type": "organism-based", "conditions": "in vivo, 120 h, dose 20-80 mg/kg, time 5 day"}, "[14]": {"experiment": "Toxicity in BALB/c mouse assessed as ruffled fur at 80 mg/kg, ip administered as single dose measured for 5 days", "type": "organism-based", "conditions": "in vivo, 120 h, time 5 day"}, "[15]": {"experiment": "Toxicity in BALB/c mouse assessed as effect on motility at 80 mg/kg, ip administered as single dose measured for 5 days", "type": "organism-based", "conditions": "in vivo, 120 h, time 5 day"}, "[16]": {"experiment": "Toxicity in BALB/c mouse assessed as inflammatory cell infiltration in liver at 80 mg/kg, ip administered as single dose measured after 5 days", "type": "organism-based", "conditions": "in vivo, 120 h, time 5 day"}, "[17]": {"experiment": "Toxicity in BALB/c mouse assessed as inflammatory cell infiltration in liver at 20 to 40 mg/kg, ip administered as single dose measured after 5 days", "type": "organism-based", "conditions": "in vivo, 120 h, dose 20-40 mg/kg, time 5 day"}, "[18]": {"experiment": "Toxicity in BALB/c mouse assessed as swelling of renal tubular epithelial cells at 80 mg/kg, ip administered as single dose measured after 5 days", "type": "organism-based", "conditions": "in vivo, 120 h, time 5 day"}, "[19]": {"experiment": "Toxicity in BALB/c mouse assessed as eosinophilic mass in the renal tubular lumen at 80 mg/kg, ip administered as single dose measured after 5 days", "type": "organism-based", "conditions": "in vivo, 120 h, time 5 day"}, "[20]": {"experiment": "Toxicity in BALB/c mouse assessed as inflammatory cell infiltration in kidney at 80 mg/kg, ip administered as single dose measured after 5 days", "type": "organism-based", "conditions": "in vivo, 120 h, time 5 day"}, "Staphylococcus aureus [21]": {"system": "Staphylococcus aureus", "experiment": "Antimicrobial activity against Staphylococcus aureus ATCC 25923 infected in neutropenia BALB/c mouse assessed as reduction in lung bacterial load at 10 to 20 mg/kg, ip administered staring from 2 hrs post infection and measured 8 hrs post-infected", "type": "functional, organism-based", "conditions": "dose 10-20 mg/kg, time 6.0 hrs"}, "Staphylococcus aureus [22]": {"system": "Staphylococcus aureus", "experiment": "Antimicrobial activity against Staphylococcus aureus ATCC 25923 infected in neutropenia BALB/c mouse assessed as reduction in bacterial load in spleen at 10 to 20 mg/kg, ip administered staring from 2 hrs post infection and measured 8 hrs post-infected", "type": "functional, organism-based", "conditions": "dose 10-20 mg/kg, time 6.0 hrs"}, "Staphylococcus aureus [23]": {"system": "Staphylococcus aureus", "experiment": "Antimicrobial activity against Staphylococcus aureus ATCC 25923 infected in neutropenia BALB/c mouse assessed as reduction in bacterial load in kidney at 10 to 20 mg/kg, ip administered staring from 2 hrs post infection and measured 8 hrs post-infected", "type": "functional, organism-based", "conditions": "dose 10-20 mg/kg, time 6.0 hrs"}, "Staphylococcus aureus [24]": {"system": "Staphylococcus aureus", "experiment": "Antimicrobial activity against Staphylococcus aureus ATCC 25923 infected in neutropenia BALB/c mouse assessed as reduction in bacterial load in liver at 10 to 20 mg/kg, ip administered staring from 2 hrs post infection and measured 8 hrs post-infected", "type": "functional, organism-based", "conditions": "dose 10-20 mg/kg, time 6.0 hrs"}, "Staphylococcus aureus [25]": {"system": "Staphylococcus aureus", "experiment": "Antimicrobial activity against Staphylococcus aureus ATCC 25923 infected in neutropenia BALB/c mouse assessed as reduction in lung bacterial load at 10 mg/kg, ip administered staring from 2 hrs post infection and measured 8 hrs post-infected in presence of ciprofloxacin", "type": "functional, organism-based", "conditions": "time 6.0 hrs"}, "Staphylococcus aureus [26]": {"system": "Staphylococcus aureus", "experiment": "Antimicrobial activity against Staphylococcus aureus ATCC 25923 infected in neutropenia BALB/c mouse assessed as reduction in bacterial load in spleen at 10 mg/kg, ip administered staring from 2 hrs post infection and measured 8 hrs post-infected in presence of ciprofloxacin", "type": "functional, organism-based", "conditions": "time 6.0 hrs"}, "Staphylococcus aureus [27]": {"system": "Staphylococcus aureus", "experiment": "Antimicrobial activity against Staphylococcus aureus ATCC 25923 infected in neutropenia BALB/c mouse assessed as reduction in bacterial load in kidney at 10 mg/kg, ip administered staring from 2 hrs post infection and measured 8 hrs post-infected in presence of ciprofloxacin", "type": "functional, organism-based", "conditions": "time 6.0 hrs"}, "Staphylococcus aureus [28]": {"system": "Staphylococcus aureus", "experiment": "Antimicrobial activity against Staphylococcus aureus ATCC 25923 infected in neutropenia BALB/c mouse assessed as reduction in bacterial load in liver at 10 mg/kg, ip administered staring from 2 hrs post infection and measured 8 hrs post-infected in presence of ciprofloxacin", "type": "functional, organism-based", "conditions": "time 6.0 hrs"}, "Mus musculus [29]": {"system": "Mus musculus", "experiment": "Antiinflammatory activity in Staphylococcus aureus ATCC 25923 infected neutropenia BALB/c mouse assessed as reduction in TNFalpha level in serum at 10 to 20 mg/kg, ip administered staring from 2 hrs post infection and measured 8 hrs post-infected", "type": "functional, organism-based", "conditions": "dose 10-20 mg/kg, time 6.0 hrs"}, "Mus musculus [30]": {"system": "Mus musculus", "experiment": "Antiinflammatory activity in Staphylococcus aureus ATCC 25923 infected neutropenia BALB/c mouse assessed as reduction in TNFalpha level in serum at 10 mg/kg, ip administered staring from 2 hrs post infection and measured 8 hrs post-infected in presence of ciprofloxacin", "type": "functional, organism-based", "conditions": "time 6.0 hrs"}}, "note": "Activity calls are given as the source filed them. The rule behind the calls is not given here. Residues, ends and D or L forms follow the SMILES beside them. *: point of attachment. Myristoyl = CCCCCCCCCCCCCC(=O)*; Lauroyl = CCCCCCCCCCCC(=O)*"}
{"smiles": "CCCCCCCCCCCC(=O)N[C@@H](CCCNC(=N)N)C(=O)N[C@@H](CCCNC(=N)N)C(=O)N[C@@H](Cc1c[nH]c2ccccc12)C(N)=O", "note": "(Lauroyl-Arg-Arg-Trp-NH2)", "values": [{"measurement": "MIC", "setting": "Bacillus subtilis", "result": 4, "unit": "µM"}, {"measurement": "MHC10", "setting": "Erythrocyte", "result": 128, "unit": "µM"}, {"measurement": "Ratio", "setting": "Staphylococcus aureus [1]", "result": 8}, {"measurement": "remaining at 6 h", "setting": "[2]", "result": 70, "unit": "%"}, {"measurement": "Activity", "setting": "Staphylococcus aureus [3]", "result": "Active"}, {"measurement": "Activity", "setting": "Staphylococcus aureus [4]", "result": "Active"}, {"measurement": "Activity", "setting": "Staphylococcus aureus [5]", "result": "Active"}, {"measurement": "Activity", "setting": "Cell membrane [6]", "result": "Dose-dependent effect"}, {"measurement": "Activity", "setting": "HEK-293T", "result": "Toxic"}]}
{"smiles": "CCCCCCCCCCCCCC(=O)N[C@@H](CCCNC(=N)N)C(=O)N[C@@H](Cc1c[nH]c2ccccc12)C(=O)N[C@@H](Cc1c[nH]c2ccccc12)C(N)=O", "note": "(Myristoyl-Arg-Trp-Trp-NH2)", "values": [{"measurement": "MIC", "setting": "Bacillus subtilis", "result": 4, "unit": "µM"}, {"measurement": "MHC10", "setting": "Erythrocyte", "result": "> 256", "unit": "µM"}, {"measurement": "metabolised at 6 h", "setting": "[7]", "result": 70, "unit": "%"}, {"measurement": "Activity", "setting": "Staphylococcus aureus [8]", "result": "Active"}, {"measurement": "Activity", "setting": "Staphylococcus aureus [9]", "result": "Active"}, {"measurement": "Activity", "setting": "Staphylococcus aureus [10]", "result": "inactive"}, {"measurement": "Activity", "setting": "Cell membrane [11]", "result": "Active"}, {"measurement": "viability at 24 h, 128 µM", "setting": "[12]", "result": "> 80", "unit": "%"}, {"measurement": "Activity", "setting": "[13]", "result": "Toxic"}, {"measurement": "Activity", "setting": "[14]", "result": "Toxic"}, {"measurement": "Activity", "setting": "[15]", "result": "Toxic"}, {"measurement": "Activity", "setting": "[16]", "result": "Toxic"}, {"measurement": "Activity", "setting": "[17]", "result": "Non-Toxic"}, {"measurement": "Activity", "setting": "[18]", "result": "Toxic"}, {"measurement": "Activity", "setting": "[19]", "result": "Toxic"}, {"measurement": "Activity", "setting": "[20]", "result": "Toxic"}, {"measurement": "Activity", "setting": "Staphylococcus aureus [21]", "result": "Active"}, {"measurement": "Activity", "setting": "Staphylococcus aureus [22]", "result": "Active"}, {"measurement": "Activity", "setting": "Staphylococcus aureus [23]", "result": "Active"}, {"measurement": "Activity", "setting": "Staphylococcus aureus [24]", "result": "Active"}, {"measurement": "Activity", "setting": "Staphylococcus aureus [25]", "result": "Active"}, {"measurement": "Activity", "setting": "Staphylococcus aureus [26]", "result": "Active"}, {"measurement": "Activity", "setting": "Staphylococcus aureus [27]", "result": "Active"}, {"measurement": "Activity", "setting": "Staphylococcus aureus [28]", "result": "Active"}, {"measurement": "Activity", "setting": "Mus musculus [29]", "result": "Active"}, {"measurement": "Activity", "setting": "Mus musculus [30]", "result": "Active"}]}
